Test results reported in PMC10786919, “Design-rules for stapled peptides with in vivo activity and their application to Mdm2/X antagonists” (Nature Communications, 2024).
≈ marks a conversion by molar mass, not a printed value. Read-outs that look alike come from different tables or passages of the source. Positions of bridges follow the written chain, without caps; N, C: chain ends. Non-standard residues stand in square brackets, D forms with d. Residues, ends and D or L forms follow the SMILES beside them. Lys(N3) = [N-]=[N+]=NCCCC[C@H](N)C(=O)O; Lys(Me2) = CN(C)CCCC[C@H](N)C(=O)O; R8 = C=CCCCCCC[C@@](C)(N)C(=O)O; Cit = NC(=O)NCCC[C@H](N)C(=O)O; Cba = N[C@@H](CC1CCC1)C(=O)O; S5 = C=CCCC[C@](C)(N)C(=O)O; Dab = NCC[C@H](N)C(=O)O; Aib = CC(C)(N)C(=O)O; Ahx = NCCCCCC(=O)O; βAla = NCCC(=O)O; Sar = CNCC(=O)O

Assays:
[1] = Lactate dehydrogenase (LDH) release assay; assay type: cell-based
Method: (§1) HCT116 cells were stably transfected with a p53 responsive β-lactamase reporter and expanded in McCoy’s 5 A Medium with 10% fetal bovine serum (FBS), Blasticidin, and Penicillin/Streptomycin and then transferred to 1.5 ml freezing vials and stored under liquid nitrogen in growth media containing 5% DMSO. […] The cells were then seeded into a 384-well plate at a density of 8000 cells per well. […] The final working concentration of DMSO was 0.5%. Lactate dehydrogenase release was detected using the CytoTox-ONE Homogenous Membrane Integrity Assay Kit (Promega), as per the manufacturer’s instructions. Measurements were carried out using the Tecan plate reader. […] Measurements were taken a minimum of three times (biological replicates) and values are reported as geometric means of the replicates.

[2] = Experimental LogD (partition coefficient); details: not stated, Partition Coeff LogD
[3] = Solubility assay (kinetic solubility, PBS pH 7); assay type: physicochemical; details: pH 7, aqueous buffer, kinetic from dmso stock, pH 7, PBS; read-out: Solubility
Method: The standard reference solutions were prepared by diluting the 10 mM stock in 10:80:10 solution of acetonitrile:methanol:DMSO to 100 µM.
The solubility value is calculated by the following equation:
Solubility [µM] = (Peak area of sample/ Peak area of standard) (Standard concentration)

HCT116 cells = assay: Lactate dehydrogenase (LDH) release assay; assay type: cell-based
Method: as §1

[4] = 0% FBS 4Hr, read-out: LDH: Cytotoxicity assay EC50
[5] = 10% FBS 16Hr, read-out: LDH: Cytotoxicity assay EC50

Row | Structure (SMILES) | EC50 ([1]; LDH: Cytotoxicity assay EC50) | LDH: Cytotoxicity assay % Effect (HCT116 cells) | also measured
1 | CC(=O)N[C@@H](CCCCN=[N+]=[N-])C(=O)N[C@@H](CCCCN)C(=O)N[C@@H](CCCCN)C(=O)NCCCCCC(=O)N[C@H](C(=O)N[C@@H](CO)C(=O)N[C@@H](Cc1ccccc1)C(=O)N[C@]1(C)CCCCCCC=CCCC[C@@](C)(C(=O)N[C@@H](CCC(=O)O)C(=O)N[C@@H](CC(N)=O)C(=O)N[C@@H](Cc2ccccc2)C(N)=O)NC(=O)[C@H](CC(C)C)NC(=O)[C@H](CC(C)C)NC(=O)[C@H](C)NC(=O)[C@H](Cc2c[nH]c3ccccc23)NC(=O)[C@H](Cc2ccc(O)cc2)NC(=O)[C@H](CCC(=O)O)NC1=O)[C@@H](C)O [MP-082] (Ac-[Lys(N3)]KK[Ahx]TSF[R8]EYWALL[S5]ENF-NH2; staple 8-15) | > 50 µM | – | logD [2]: 2.46; solubility kinetic [3]: 2 µM (≈ 4.75 µg/mL)
2 | CC(=O)N[C@@H](CCCCN=[N+]=[N-])C(=O)N[C@@H](CCCCN)C(=O)N[C@@H](CCCCN)C(=O)N[C@@H](CCCCN)C(=O)NCCCCCC(=O)N[C@H](C(=O)N[C@@H](CO)C(=O)N[C@@H](Cc1ccccc1)C(=O)N[C@]1(C)CCCCCCC=CCCC[C@@](C)(C(=O)N[C@@H](CCC(=O)O)C(=O)N[C@@H](CC(N)=O)C(=O)N[C@@H](Cc2ccccc2)C(N)=O)NC(=O)[C@H](CC(C)C)NC(=O)[C@H](CC(C)C)NC(=O)[C@H](C)NC(=O)[C@H](Cc2c[nH]c3ccccc23)NC(=O)[C@H](Cc2ccc(O)cc2)NC(=O)[C@H](CCC(=O)O)NC1=O)[C@@H](C)O [MP-085] (Ac-[Lys(N3)]KKK[Ahx]TSF[R8]EYWALL[S5]ENF-NH2; staple 9-16) | > 50 µM | – | logD [2]: 2.39; solubility kinetic [3]: 2 µM (≈ 5.01 µg/mL)
3 | CC(=O)N[C@@H](CCCCN=[N+]=[N-])C(=O)NCCC(=O)N[C@@H](CC(C)C)C(=O)N[C@H](C(=O)N[C@@H](Cc1ccccc1)C(=O)N[C@]1(C)CCCCCCC=CCCC[C@@](C)(C(=O)N[C@@H](C)C(=O)N(C)CC(=O)N(C)CC(=O)N(C)CC(=O)N(C)CC(=O)N(C)CC(N)=O)NC(=O)[C@H](CC2CCC2)NC(=O)[C@H](CCC(N)=O)NC(=O)[C@H](C)NC(=O)[C@H](Cc2c[nH]c3ccccc23)NC(=O)[C@H](Cc2ccc(O)cc2)NC(=O)[C@H](CCC(=O)O)NC1=O)[C@@H](C)O [MP-443] (Ac-[Lys(N3)][βAla]LTF[R8]EYWAQ[Cba][S5]A[Sar][Sar][Sar][Sar][Sar]-NH2; staple 6-13) | – | – | EC50 [1, 4]: > 50.7 µM; EC50 [1, 5]: > 50.7 µM; LDH: Cytotoxicity assay % Effect (HCT116 cells; 0% FBS 4Hr): 8.392%; LDH: Cytotoxicity assay % Effect (HCT116 cells; 10% FBS 16Hr): 2.311%; solubility kinetic [3]: 180 µM (≈ 390 µg/mL)
4 | CC(=O)N[C@@H](CCCCN=[N+]=[N-])C(=O)N[C@H](C(=O)N[C@@H](Cc1ccccc1)C(=O)N[C@]1(C)CCCCC#CC#CCCC[C@@](C)(C(=O)N[C@@H](CCC(=O)O)C(=O)N[C@@H](C)C(=O)N[C@@H](Cc2ccccc2)C(=O)N[C@@H](C)C(=O)N[C@@H](C)C(=O)N[C@@H](Cc2ccccc2)C(N)=O)NC(=O)[C@H](CC2CCC2)NC(=O)[C@H](CCC(N)=O)NC(=O)[C@H](C)NC(=O)[C@H](Cc2c[nH]c3ccccc23)NC(=O)[C@H](Cc2ccc(O)cc2)NC(=O)[C@H](CCC(=O)O)NC1=O)[C@@H](C)O [MP-444, Ac-K(N3)-TF(X)EYWAQ(Cba)(X)EAFAAF-NH2] | – | – | EC50 [1, 4]: > 50.7 µM; EC50 [1, 5]: > 50.7 µM; LDH: Cytotoxicity assay % Effect (HCT116 cells; 0% FBS 4Hr): 17.89%; LDH: Cytotoxicity assay % Effect (HCT116 cells; 10% FBS 16Hr): 4.968%; solubility kinetic [3]: 167 µM (≈ 365 µg/mL)
5 | CC(=O)N[C@@H](CCCCN=[N+]=[N-])C(=O)NCCC(=O)N[C@@H](CC(C)C)C(=O)N[C@H](C(=O)N[C@@H](Cc1ccccc1)C(=O)N[C@]1(C)CCCCCCC=CCCC[C@@](C)(C(=O)N[C@@H](CO)C(=O)N[C@@H](C)C(=O)N[C@@H](C)C(N)=O)NC(=O)[C@H](CC2CCC2)NC(=O)[C@H](CCC(N)=O)N(C)C(=O)[C@H](C)NC(=O)[C@H](Cc2c[nH]c3ccccc23)NC(=O)[C@H](Cc2ccc(O)cc2)NC(=O)[C@H](CCC(=O)O)NC1=O)[C@@H](C)O [MP-499] | – | – | EC50 ([1]; LDH: Cytotoxicity assay: EC50): > 50.6 µM; LDH: Cytotoxicity assay: % Effect (HCT116 cells): 13.75%
6 | CC(=O)N[C@@H](CCN)C(=O)N[C@@H](CCN)C(=O)NCCCCCC(=O)N[C@H](C(=O)N[C@@H](CO)C(=O)N[C@@H](Cc1ccccc1)C(=O)N[C@]1(C)CCCCCCC=CCCC[C@@](C)(C(=O)N[C@@H](CCC(=O)O)C(=O)N[C@@H](CC(N)=O)C(=O)N[C@@H](Cc2ccccc2)C(N)=O)NC(=O)[C@H](CC(C)C)NC(=O)[C@H](CC(C)C)NC(=O)[C@H](C)NC(=O)[C@H](Cc2c[nH]c3ccccc23)NC(=O)[C@H](Cc2ccc(O)cc2)NC(=O)[C@H](CCC(=O)O)NC1=O)[C@@H](C)O [MP-664] (Ac-[Dab][Dab][Ahx]TSF[R8]EYWALL[S5]ENF-NH2; staple 7-14) | > 50 µM | 4.71% | –
7 | CC(=O)N[C@@H](CN)C(=O)NCCCCCC(=O)N[C@H](C(=O)N[C@@H](CO)C(=O)N[C@@H](Cc1ccccc1)C(=O)N[C@]1(C)CCCCCCC=CCCC[C@@](C)(C(=O)N[C@@H](CCC(=O)O)C(=O)N[C@@H](CC(N)=O)C(=O)N[C@@H](Cc2ccccc2)C(N)=O)NC(=O)[C@H](CC(C)C)NC(=O)[C@H](CC(C)C)NC(=O)[C@H](C)NC(=O)[C@H](Cc2c[nH]c3ccccc23)NC(=O)[C@H](Cc2ccc(O)cc2)NC(=O)[C@H](CCC(=O)O)NC1=O)[C@@H](C)O [MP-665] | > 50 µM | 4.993% | –
8 | CC(=O)N[C@@H](CCN)C(=O)NCCCCCC(=O)N[C@H](C(=O)N[C@@H](CO)C(=O)N[C@@H](Cc1ccccc1)C(=O)N[C@]1(C)CCCCCCC=CCCC[C@@](C)(C(=O)N[C@@H](CCC(=O)O)C(=O)N[C@@H](CC(N)=O)C(=O)N[C@@H](Cc2ccccc2)C(N)=O)NC(=O)[C@H](CC(C)C)NC(=O)[C@H](CC(C)C)NC(=O)[C@H](C)NC(=O)[C@H](Cc2c[nH]c3ccccc23)NC(=O)[C@H](Cc2ccc(O)cc2)NC(=O)[C@H](CCC(=O)O)NC1=O)[C@@H](C)O [MP-666] | > 50 µM | 15.43% | –
9 | CC(=O)N[C@H](C(=O)N[C@@H](CCCNC(N)=O)C(=O)N[C@@H](CCCCN)C(=O)NCCCCCC(=O)N[C@H](C(=O)N[C@@H](CO)C(=O)N[C@@H](Cc1ccccc1)C(=O)N[C@]1(C)CCCCCCC=CCCC[C@@](C)(C(=O)N[C@@H](CCC(=O)O)C(=O)N[C@@H](CC(N)=O)C(=O)N[C@@H](Cc2ccccc2)C(N)=O)NC(=O)[C@H](CC(C)C)NC(=O)[C@H](CC(C)C)NC(=O)[C@H](C)NC(=O)[C@H](Cc2c[nH]c3ccccc23)NC(=O)[C@H](Cc2ccc(O)cc2)NC(=O)[C@H](CCC(=O)O)NC1=O)[C@@H](C)O)C(C)C [MP-668] (Ac-V[Cit]K[Ahx]TSF[R8]EYWALL[S5]ENF-NH2; staple 8-15) | > 50 µM | 4.429% | –
10 | CC(=O)N[C@H](C(=O)N[C@@H](CCCNC(N)=O)C(=O)N[C@@H](CC(C)C)C(=O)N[C@H](C(=O)N[C@@H](Cc1ccccc1)C(=O)N[C@]1(C)CCCCCCC=CCCC[C@@](C)(C(=O)N[C@@H](CO)C(=O)N[C@@H](C)C(=O)N[C@@H](C)C(N)=O)NC(=O)[C@H](CC2CCC2)NC(=O)[C@H](CCC(N)=O)NC(=O)[C@H](C)NC(=O)[C@H](Cc2c[nH]c3ccccc23)NC(=O)[C@H](Cc2ccc(O)cc2)NC(=O)[C@H](CCC(=O)O)NC1=O)[C@@H](C)O)C(C)C [MP-669] | > 50 µM | 9.923% | –
11 | CC(=O)N[C@@H](CCCCN=[N+]=[N-])C(=O)NCCC(=O)N[C@@H](CC(C)C)C(=O)N[C@H](C(=O)N[C@@H](Cc1ccccc1)C(=O)N[C@]1(C)CCCCCCC=CCCC[C@@](C)(C(=O)N[C@@H](CO)C(=O)N[C@@H](C)C(=O)N[C@@H](C)C(N)=O)NC(=O)[C@H](CC2CCC2)NC(=O)[C@H](CCC(N)=O)NC(=O)[C@H](C)NC(=O)[C@H](Cc2c[nH]c3cc(Cl)ccc23)NC(=O)[C@H](Cc2ccc(CP(=O)(O)O)cc2)NC(=O)[C@H](CCC(=O)O)NC1=O)[C@@H](C)O [MP-891] | – | – | EC50 ([1]; 0% FBS 4Hr, read-out: LDH: Cytotoxicity assay: EC50): > 50.6 µM; LDH: Cytotoxicity assay: % Effect (HCT116 cells; 0% FBS 4Hr): 3.299%
12 | CC(=O)N[C@H](C(=O)N[C@@H](CO)C(=O)N[C@@H](Cc1ccccc1)C(=O)NC(C)(C)C(=O)N[C@@H](CCC(=O)O)C(=O)N[C@@H](Cc1ccc(O)cc1)C(=O)N[C@@H](Cc1c[nH]c2ccccc12)C(=O)N[C@@H](C)C(=O)N[C@@H](CC(C)C)C(=O)N[C@@H](CC1CCC1)C(=O)NC(C)(C)C(N)=O)[C@@H](C)O [MP-1154] (Ac-TSF[Aib]EYWAL[Cba][Aib]-NH2) | > 50 µM | 17.78% | –
13 | CC(=O)N[C@@H](CCCCN(C)C)C(=O)N[C@@H](CCCCN(C)C)C(=O)NCCCCCC(=O)N[C@H](C(=O)N[C@@H](CO)C(=O)N[C@@H](Cc1ccccc1)C(=O)N[C@]1(C)CCCCCCC=CCCC[C@@](C)(C(=O)N[C@@H](CCC(=O)O)C(=O)N[C@@H](CC(N)=O)C(=O)N[C@@H](Cc2ccccc2)C(N)=O)NC(=O)[C@H](CC(C)C)NC(=O)[C@H](CC(C)C)NC(=O)[C@H](C)NC(=O)[C@H](Cc2c[nH]c3ccccc23)NC(=O)[C@H](Cc2ccc(O)cc2)NC(=O)[C@H](CCC(=O)O)NC1=O)[C@@H](C)O [MP-2042] (Ac-[Lys(Me2)][Lys(Me2)][Ahx]TSF[R8]EYWALL[S5]ENF-NH2; staple 7-14) | > 50 µM | 5.569% | –
14 | CC(=O)N[C@H](C(=O)N[C@@H](CCCNC(N)=O)C(=O)N[C@H](C(=O)N[C@@H](CO)C(=O)N[C@@H](Cc1ccccc1)C(=O)N[C@]1(C)CCCCCCC=CCCC[C@@](C)(C(N)=O)NC(=O)[C@H](CC(C)C)NC(=O)[C@H](CC(C)C)NC(=O)[C@H](C)NC(=O)[C@H](Cc2c[nH]c3ccccc23)NC(=O)[C@H](Cc2ccc(O)cc2)NC(=O)[C@H](CCC(=O)O)NC1=O)[C@@H](C)O)C(C)C [MP-9667] | > 50 µM | 5.511% | –
